Experimental data taken from US20240124467A1, “FUSED PYRIMIDINE COMPOUNDS AS INHIBITORS OF MENIN-MLL INTERACTION” (Biomea Fusion, Inc., priority 2020, published 2024).
Where two headings read alike, the source gives them in different places.

Legend:
Format in all cases: cell-based
K-562 = experiment: Cell proliferation inhibition (CellTiter-Glo), K-562 cells; details: Homo sapiens, K-562 (BCR-ABL)
Experimental: (§1) The present example evaluates the ability of compounds described herein, inhibitors of Menin/MLL interaction, to inhibit cell proliferation. The proliferation inhibitory effect was investigated in human MLL-leukemia cells selected on the bases of MLL fusion proteins and listed in the table below.
(§2) ATP is present in all metabolically active cells and is considered as a marker for cell viability and proliferation. The metabolic cell activity was determined using the CellTiter-Glo kit from Promega, an ATP monitoring system based on the production of luminescence by the reaction of ATP with added UltraGlo® recombinant luciferase (Kawano et al., 2016, PLOS One, 8:11(7):e0158888), according to the supplier's experimental recommendations. The assay is based on a 96 well plate format. All experiments were carried out in duplicate in one test occasion.
(§3) Test items were dissolved at 20 mM in DMSO with purity ≥99.9% (Sigma catalog no. D8418) and stored at −20° C. Cells were maintained in RPMI-1640 medium (Invitrogen catalog no. 618700) supplemented with 10% of Heat Inactivated FBS (Invitrogen catalog no. 10500) and 1% Pen-Strep (Invitrogen catalog no. 15140) and cultured at 37° C. in a humidified incubator with 5% CO2. Cell lines were grown in suspension and the cell density was maintained in a range of 5×10^4-1×10^6 viable cells/ml where possible. Cells were pelleted at 130 g×5 min.
(§4) Serial dilutions of compounds 1 to 3 in DMSO 100% were prepared starting from a 2.5 mM solutions (prepared by diluting 1:8 the 20 mM stock solution) to generate a 7 point concentration response curve (CRC). Seven concentrations of test compounds (e.g., 5.00×10^−6-1.67×10^−6-5.56×10^−7-1.85×10^−7-6.17×10^−8-2.06×10^−8-6.86×10^−9 M) were assessed in duplicate in an individual test occasion in parallel in the selected cell lines. KO-539 was used as a reference compound and tested in duplicate at seven similar concentrations. 100% of proliferation was represented by the untreated cells (0.2% DMSO).
(§5) Cell proliferation inhibition was monitored at both the following end points: Day 4 (T4) and Day 7 (T7). For the appropriate cell density during the exponential cell growth and re-supply with fresh compound solution at T4, cells were diluted (1:4) with fresh medium containing the compound concentration (1×).
(§6) For each plate to test, one 0.4 μL copy plate and four 0.3 μL copy plates were stamped into 96-well plates not treated for cell adhesion (Sarstedt—cat. no. 82.1581.001) by acoustic liquid handling (Echo) at a concentration which was 500 fold the final assay concentration. Stamped plates were stored at −20° C.
(§7) On Day 0, the day of the experiment cell line suspensions were counted by Cell Viability Analyser, Vi-CELL (Beckman Coulter AY15292), and diluted with fresh medium to obtain the following cell densities: K-562 500 c/ml, MOLM-13 1,000 c/ml, MV4-11 10,000 c/ml, OCI-AML-3 500 c/ml, and U-937 500-1,000 c/ml. 200 μL/well and 150 μL/well of cell suspension were added into the 0.4 μL/well and 0.3 μL/well compound plates, respectively. Cell plate containing 200 μL/well suspension were incubated at 37° C. in a humidified incubator with 5% CO2. From each well of the 150 μL/well cell assay plate, 100 μL were harvested and transferred into a 96-well Optiplate (Perkin Elmer, cat. no. 6005290). Cell viability was measured as described below.
(§8) On Day 4, 150p/well of fresh medium was added into a new 0.3 μL/well copy compound plates. From each well of the 200 μL/well cell assay plate, 100 μL was sampled for the cell viability measurement as described below. 50p was harvested and added to the 150p/well compound plate prepared as described in the first point to dilute 1:4 the cell suspension. The cell assay plate diluted and containing 200 μL/well suspension was incubated at 37° C. in a humidified incubator with 5% CO2.
(§9) On Day 4, 150p/well of fresh medium was added into a new 0.3 μL/well copy compound plates. […]

MV4-11 = experiment: Cell proliferation inhibition (CellTiter-Glo), MV4-11 cells; details: Homo sapiens, MV4-11 (MLL-AF4)
Experimental: as §1, §2, §3, §4, §5, §6, §7, §8, §9

MOLM-13 = experiment: Cell proliferation inhibition (CellTiter-Glo), MOLM-13 cells; details: Homo sapiens, MOLM-13 (MLL-AF9)
Experimental: as §1, §2, §3, §4, §5, §6, §7, §8, §9

[1] = K562, 96 h, Day 4, read-out: K-562 IC50 μM (Day 4)
[2] = 96 h, Day 4, read-out: MV-4:11 IC50 μM (Day 4)*
[3] = 96 h, Day 4, read-out: MOLM-13 Day IC50 μM (Day 4)*
[4] = K562, 168 h, Day 7, read-out: K-562 IC50 μM (Day 7)*
[5] = 168 h, Day 7, read-out: MV-4:11 IC50 μM (Day 7)*
[6] = 168 h, Day 7, read-out: MOLM-13 Day IC50 μM (Day 7)*

| Compound | IC50 (K-562; [1]) [µM] | IC50 (MV4-11; [2]) [µM] | IC50 (MOLM-13; [3]) [µM] | IC50 (K-562; [4]) [µM] | IC50 (MV4-11; [5]) [µM] | IC50 (MOLM-13; [6]) [µM] |
| --- | --- | --- | --- | --- | --- | --- |
| C=CC(=O)N1CCC(N2CCN(C(=O)Nc3ccc(-c4cc5c(N6CCOCC6)ncnc5[nH]4)cc3)CC2)CC1 [Compound B0700-613, 4-(1-acryloylpiperidin-4-yl)-N-(4-(4-morpholino-7H-pyrrolo[2,3-d]pyrimidin-6-yl)phenyl)piperazine-1-carboxamide] | 6.04 | 0.495 | 0.632 | 11.2 | 0.47 | 0.477 |
| C=CC(=O)N[C@@H]1CCCN(Cc2ccnc(C(=O)NC3CC=C(c4cc5c(N6CCOCC6)ncnc5[nH]4)CC3)c2)C1 (stereo partly drawn) [Compound B0700-527] | 2.89 | 0.371 | 0.607 | – | – | – |
| O=C(/C=C/Cc1cnc[nH]1)N[C@@H]1CCCN(Cc2ccnc(C(=O)Nc3ccc(-c4cc5c(N6CCOCC6)ncnc5[nH]4)cc3)c2)C1 [Compound B0700-523] | > 10 | 0.232 | 0.213 | – | – | – |
| C=CC(=O)N[C@@H]1CCCN(Cc2ccnc(C(=O)Nc3ccc(-c4[nH]c5ncnc(N6CCOCC6)c5c4C)cc3)c2)C1 [Compound B0700-528] | 1.18 | 0.464 | 0.462 | – | – | – |
| Cc1cc(C)n2c1C=C1C=CC(CCC(=O)NCCCCN(C)C/C=C/C(=O)N[C@@H]3CCCN(Cc4ccnc(C(=O)Nc5ccc(-c6cc7c(N8CCOCC8)ncnc7[nH]6)cc5)c4)C3)=[N+]1[B-]2(F)F [Compound B0700-503] | 2.51 | 2.89 | 4.51 | – | – | – |
| C=CS(=O)(=O)N[C@H]1CCN(c2cccc(CS(=O)(=O)Nc3ccc(-c4cc5c(N6CCOCC6)ncnc5[nH]4)cc3)c2)C1 [Compound B0700-541] | 2.06 | 0.09 | 0.193 | – | – | – |
| C=CC(=O)N[C@H]1CCCN(c2cccc(CS(=O)(=O)Nc3ccc(-c4cc5c(N6CCOCC6)ncnc5[nH]4)cc3)c2)C1 [Compound B0700-540] | > 10 | 0.148 | 0.329 | – | – | – |
| CCN(C/C=C/C(=O)N[C@@H]1CCCN(Cc2ccnc(C(=O)Nc3ccc(-c4cc5c(N6CCOCC6)ncnc5[nH]4)cc3)c2)C1)C1CC1 [Compound B0700-525] | 6.7 | 0.634 | 0.506 | – | – | – |
| C=CC(=O)N1CCC(N2CCN(S(=O)(=O)Nc3ccc(-c4cc5c(N6CCOCC6)ncnc5[nH]4)cc3)CC2)CC1 [Compound B0700-612, 4-(1-acryloylpiperidin-4-yl)-N-(4-(4-morpholino-7H-pyrrolo[2,3-d]pyrimidin-6-yl)phenyl)piperazine-1-sulfonamide] | > 10 | 1.4 | 2.85 | > 10 | 1.14 | 2.39 |
| C=CC(=O)N[C@@H]1CCCN(Cc2ccnc(C(=O)Nc3ccc(-c4cc5c(N6CCOCC6)ncnc5[nH]4)cc3F)c2)C1 [Compound B0700-549] | > 10 | 0.796 | 0.475 | – | – | – |

The next lines start with the values.

| IC50 (K-562; [1]) [µM] | IC50 (MV4-11; [2]) [µM] | IC50 (MOLM-13; [3]) [µM] | IC50 (K-562; [4]) [µM] | IC50 (MV4-11; [5]) [µM] | IC50 (MOLM-13; [6]) [µM] | Compound |
| --- | --- | --- | --- | --- | --- | --- |
| > 10 | 0.304 | 1.63 | – | – | – | C=CC(=O)N[C@@H]1CCCN(C(=O)c2ccnc(CNc3ccc(-c4cc5c(N6CCOCC6)ncnc5[nH]4)cc3)c2)C1 [Compound B0700-561, (R)—N-(1-(2-(((4-(4-morpholino-7H-pyrrolo[2,3-d]pyrimidin-6-yl)phenyl)amino)methyl)isonicotinoyl)piperidin-3-yl)acrylamide] |
| 8.31 | 0.113 | 0.185 | – | – | – | C=CC(=O)N[C@H]1CCN(c2cccc(CS(=O)(=O)Nc3ccc(-c4cc5c(N6CCOCC6)ncnc5[nH]4)cc3)c2)C1 [Compound B0700-511, (S)—N-(1-(3-((N-(4-(4-morpholino-7H-pyrrolo[2,3-d]pyrimidin-6-yl)phenyl)sulfamoyl)methyl)phenyl)pyrrolidin-3-yl)acrylamide] |
| 0.616 | 0.314 | 0.28 | – | – | – | C=CC(=O)N[C@@H]1CCCN(Cc2ccc(F)c(C(=O)Nc3ccc(-c4cc5c(N6CCOCC6)ncnc5[nH]4)cc3)c2)C1 [Compound B0700-530] |
| > 10 | 0.212 | 0.276 | – | – | – | C/C=C/S(=O)(=O)N[C@@H]1CCCN(Cc2ccnc(C(=O)Nc3ccc(-c4cc5c(N6CCOCC6)ncnc5[nH]4)cc3)c2)C1 [Compound B0700-550] |
| 7.05 | > 10 | 0.184 | – | – | – | C=CC(=O)N[C@@H]1CCN(c2cccc(CS(=O)(=O)Nc3ccc(-c4cc5c(N6CCOCC6)ncnc5[nH]4)cc3)c2)C1 [Compound B0700-535, (R)—N-(1-(3-((N-(4-(4-morpholino-7H-pyrrolo[2,3-d]pyrimidin-6-yl)phenyl)sulfamoyl)methyl)phenyl)pyrrolidin-3-yl)acrylamide] |
| 2.19 | 0.138 | 0.197 | 3.65 | 0.1 | 0.164 | C=CC(=O)N1CCCC(N2CC[C@@H](C(=O)Nc3ccc(-c4cc5c(N6CCOCC6)ncnc5[nH]4)cc3)C2)C1 (stereo partly drawn) [Compound B0700-608, (3R)-1-(1-acryloylpiperidin-3-yl)-N-(4-(4-morpholino-7H-pyrrolo[2,3-d]pyrimidin-6-yl)phenyl)pyrrolidine-3-carboxamide] |
| > 10 | 0.418 | 1.39 | – | – | – | C=CC(=O)N[C@@H]1CCCN(c2cccc([C@H](C)S(=O)(=O)Nc3ccc(-c4cc5c(N6CCOCC6)ncnc5[nH]4)cc3)c2)C1 [Compound B0700-547] |
